# Experimental data as given in ChEMBL document CHEMBL3745645, “Synthesis, in vitro antitumor activity, dihydrofolate reductase inhibition, DNA intercalation and structure-activity relationship studies of 1,3,5-triazine analogues” (Bioorg Med Chem Lett, 2016).
# Activity calls are given as the source filed them. The rule behind the calls is not given here.
# Experiments:
# Assay type in all cases: functional
# [1] = system: CAKI-1; test: Cytotoxicity against human Caki1 cells at 10 uM after 48 hrs by SRB assay
# [2] = system: RXF 393; test: Cytotoxicity against human RXF393 cells at 10 uM after 48 hrs by SRB assay
# [3] = system: SN12C; test: Cytotoxicity against human SN12C cells at 10 uM after 48 hrs by SRB assay; conditions: read-out: GI
# [4] = system: TK-10; test: Cytotoxicity against human TK10 cells at 10 uM after 48 hrs by SRB assay
# [5] = Cytotoxicity against human UO31 cells at 10 uM after 48 hrs by SRB assay; conditions: UO-31, 48 h, read-out: GI
# [6] = Cytotoxicity against human DU145 cells at 10 uM after 48 hrs by SRB assay; conditions: DU-145, 48 h, read-out: GI
# [7] = system: MCF7; test: Cytotoxicity against human MCF7 cells at 10 uM after 48 hrs by SRB assay; conditions: MCF7, 48 h, read-out: GI
# [8] = system: MDA-MB-231; test: Cytotoxicity against human MDA-MB-231 cells at 10 uM after 48 hrs by SRB assay; conditions: MDA-MB-231, 48 h, read-out: GI
# [9] = Cytotoxicity against human Hs 578T cells at 10 uM after 48 hrs by SRB assay; conditions: read-out: GI
# [10] = system: BT-549; test: Cytotoxicity against human BT549 cells at 10 uM after 48 hrs by SRB assay
# [11] = system: T47D; test: Cytotoxicity against human T47D cells at 10 uM after 48 hrs by SRB assay; conditions: read-out: GI
# [12] = system: MDA-MB-468; test: Cytotoxicity against human MDA-MB-468 cells at 10 uM after 48 hrs by SRB assay
# [13] = system: CCRF-CEM; test: Cytotoxicity against human CCRF-CEM cells at 10 uM after 48 hrs by SRB assay; conditions: read-out: GI
# [14] = Cytotoxicity against human HL-60(TB) cells at 10 uM after 48 hrs by SRB assay; conditions: HL-60, 48 h, read-out: GI
# [15] = system: K562; test: Cytotoxicity against human K562 cells at 10 uM after 48 hrs by SRB assay; conditions: K562, 48 h, read-out: GI
# [16] = Cytotoxicity against human MOLT4 cells at 10 uM after 48 hrs by SRB assay; conditions: MOLT-4, 48 h, read-out: GI
# [17] = Cytotoxicity against human RPMI8226 cells at 10 uM after 48 hrs by SRB assay; conditions: RPMI-8226, 48 h, read-out: GI
# [18] = system: SR; test: Cytotoxicity against human SR cells at 10 uM after 48 hrs by SRB assay; conditions: read-out: GI
# [19] = system: A549; test: Cytotoxicity against human A549 cells at 10 uM after 48 hrs by SRB assay; conditions: A549, 48 h, read-out: GI
# [20] = Cytotoxicity against human HOP62 cells at 10 uM after 48 hrs by SRB assay; conditions: HOP-62, 48 h, read-out: GI
# [21] = Cytotoxicity against human HOP92 cells at 10 uM after 48 hrs by SRB assay; conditions: HOP-92, 48 h, read-out: GI
# [22] = system: NCI-H226; test: Cytotoxicity against human NCI-H226 cells at 10 uM after 48 hrs by SRB assay; conditions: NCI-H226, 48 h, read-out: GI
# [23] = system: NCI-H322M; test: Cytotoxicity against human NCI-H322M cells at 10 uM after 48 hrs by SRB assay; conditions: read-out: GI
# [24] = system: NCI-H460; test: Cytotoxicity against human NCI-H460 cells at 10 uM after 48 hrs by SRB assay; conditions: NCI-H460, 48 h, read-out: GI
# [25] = system: NCI-H522; test: Cytotoxicity against human NCI-H522 cells at 10 uM after 48 hrs by SRB assay; conditions: NCI-H522, 48 h, read-out: GI
# [26] = Cytotoxicity against human COLO205 cells at 10 uM after 48 hrs by SRB assay; conditions: COLO 205, 48 h, read-out: GI
# [27] = system: HCC 2998; test: Cytotoxicity against human HCC2998 cells at 10 uM after 48 hrs by SRB assay
# [28] = Cytotoxicity against human HCT116 cells at 10 uM after 48 hrs by SRB assay; conditions: HCT-116, 48 h, read-out: GI
# [29] = Cytotoxicity against human HCT15 cells at 10 uM after 48 hrs by SRB assay; conditions: HCT-15, 48 h, read-out: GI
# [30] = system: HT-29; test: Cytotoxicity against human HT-29 cells at 10 uM after 48 hrs by SRB assay; conditions: HT-29, 48 h, read-out: GI
# [31] = system: KM12; test: Cytotoxicity against human KM12 cells at 10 uM after 48 hrs by SRB assay; conditions: KM12, 48 h, read-out: GI
# [32] = system: SW-620; test: Cytotoxicity against human SW620 cells at 10 uM after 48 hrs by SRB assay
# [33] = Cytotoxicity against human SF268 cells at 10 uM after 48 hrs by SRB assay; conditions: SF-268, 48 h, read-out: GI
# [34] = Cytotoxicity against human SF295 cells at 10 uM after 48 hrs by SRB assay; conditions: SF-295, 48 h, read-out: GI
# [35] = system: SF-539; test: Cytotoxicity against human SF539 cells at 10 uM after 48 hrs by SRB assay
# [36] = Cytotoxicity against human SNB19 cells at 10 uM after 48 hrs by SRB assay; conditions: SNB-19, 48 h, read-out: GI
# [37] = Cytotoxicity against human SNB75 cells at 10 uM after 48 hrs by SRB assay; conditions: SNB-75, 48 h, read-out: GI
# [38] = system: U-251; test: Cytotoxicity against human U251 cells at 10 uM after 48 hrs by SRB assay; conditions: U-251, 48 h, read-out: GI
# [39] = Cytotoxicity against human LOXIMVI cells at 10 uM after 48 hrs by SRB assay; conditions: LOX IMVI, read-out: GI
# [40] = system: Malme-3M; test: Cytotoxicity against human MALME-3M cells at 10 uM after 48 hrs by SRB assay; conditions: read-out: GI
# [41] = system: M14; test: Cytotoxicity against human M14 cells at 10 uM after 48 hrs by SRB assay; conditions: M14, 48 h, read-out: GI
# [42] = system: MDA-MB-435; test: Cytotoxicity against human MDA-MB-435 cells at 10 uM after 48 hrs by SRB assay; conditions: MDA-MB-435, 48 h, read-out: GI
# [43] = system: SK-MEL-2; test: Cytotoxicity against human SK-MEL-2 cells at 10 uM after 48 hrs by SRB assay
# [44] = system: SK-MEL-28; test: Cytotoxicity against human SK-MEL-28 cells at 10 uM after 48 hrs by SRB assay
# [45] = system: SK-MEL-5; test: Cytotoxicity against human SK-MEL-5 cells at 10 uM after 48 hrs by SRB assay; conditions: SK-MEL-5, 48 h, read-out: GI
# [46] = system: UACC-257; test: Cytotoxicity against human UACC257 cells at 10 uM after 48 hrs by SRB assay
# [47] = Cytotoxicity against human IGROV1 cells at 10 uM after 48 hrs by SRB assay; conditions: IGROV-1, 48 h, read-out: GI
# [48] = Cytotoxicity against human OVCAR3 cells at 10 uM after 48 hrs by SRB assay; conditions: OVCAR-3, 48 h, read-out: GI
# [49] = Cytotoxicity against human OVCAR4 cells at 10 uM after 48 hrs by SRB assay; conditions: OVCAR-4, 48 h, read-out: GI
# [50] = system: OVCAR-5; test: Cytotoxicity against human OVCAR5 cells at 10 uM after 48 hrs by SRB assay
# [51] = Cytotoxicity against human OVCAR8 cells at 10 uM after 48 hrs by SRB assay; conditions: OVCAR-8, 48 h, read-out: GI
# [52] = Cytotoxicity against human NCI-ADR-RES cells at 10 uM after 48 hrs by SRB assay; conditions: read-out: GI
# [53] = Cytotoxicity against human SKOV3 cells at 10 uM after 48 hrs by SRB assay; conditions: SK-OV-3, 48 h, read-out: GI
# [54] = system: 786-0; test: Cytotoxicity against human 786-0 cells at 10 uM after 48 hrs by SRB assay
# [55] = system: A498; test: Cytotoxicity against human A498 cells at 10 uM after 48 hrs by SRB assay; conditions: A498, 48 h, read-out: GI
# [56] = system: ACHN; test: Cytotoxicity against human ACHN cells at 10 uM after 48 hrs by SRB assay; conditions: read-out: GI
smiles,measurement,setting,value
Cc1nc2cc(Nc3nc(Nc4ccc(F)cc4)nc(Nc4ncccn4)n3)ccc2n1Cc1ccccc1,growth inhibition (GI),[1],inactive
same,growth inhibition (GI),[2],inactive
same,inhibition of growth at 10 µM,[3],8.42%
same,growth inhibition (GI),[4],inactive
same,inhibition of growth at 10 µM,[5],27%
same,inhibition of growth at 10 µM,[6],4.12%
same,inhibition of growth at 10 µM,[7],20.1%
same,inhibition of growth at 10 µM,[8],7.37%
same,inhibition of growth at 10 µM,[9],20.9%
same,growth inhibition (GI),[10],inactive
same,inhibition of growth at 10 µM,[11],25.1%
same,growth inhibition (GI),[12],inactive
same,inhibition of growth at 10 µM,[13],63.2%
same,inhibition of growth at 10 µM,[14],30.1%
same,inhibition of growth at 10 µM,[15],41.3%
same,inhibition of growth at 10 µM,[16],44.6%
same,inhibition of growth at 10 µM,[17],57.4%
same,inhibition of growth at 10 µM,[18],51.6%
same,inhibition of growth at 10 µM,[19],17.8%
same,inhibition of growth at 10 µM,[20],2.38%
same,inhibition of growth at 10 µM,[21],18.4%
same,inhibition of growth at 10 µM,[22],11.5%
same,inhibition of growth at 10 µM,[23],5.47%
same,inhibition of growth at 10 µM,[24],5.2%
same,inhibition of growth at 10 µM,[25],22.5%
same,inhibition of growth at 10 µM,[26],10.5%
same,growth inhibition (GI),[27],inactive
same,inhibition of growth at 10 µM,[28],15.8%
same,inhibition of growth at 10 µM,[29],12.7%
same,inhibition of growth at 10 µM,[30],14.8%
same,inhibition of growth at 10 µM,[31],11.6%
same,growth inhibition (GI),[32],inactive
same,inhibition of growth at 10 µM,[33],11.2%
same,inhibition of growth at 10 µM,[34],15.6%
same,growth inhibition (GI),[35],inactive
same,inhibition of growth at 10 µM,[36],7.38%
same,inhibition of growth at 10 µM,[37],15.6%
same,inhibition of growth at 10 µM,[38],13.2%
same,inhibition of growth at 10 µM,[39],3.01%
same,inhibition of growth at 10 µM,[40],7.94%
same,inhibition of growth at 10 µM,[41],5.65%
same,inhibition of growth at 10 µM,[42],9.24%
same,growth inhibition (GI),[43],inactive
same,growth inhibition (GI),[44],inactive
same,inhibition of growth at 10 µM,[45],6.35%
same,growth inhibition (GI),[46],inactive
same,inhibition of growth at 10 µM,[47],24%
same,inhibition of growth at 10 µM,[48],9.64%
same,inhibition of growth at 10 µM,[49],20.2%
same,growth inhibition (GI),[50],inactive
same,inhibition of growth at 10 µM,[51],8.83%
same,inhibition of growth at 10 µM,[52],10.5%
same,inhibition of growth at 10 µM,[53],2.64%
same,growth inhibition (GI),[54],inactive
same,inhibition of growth at 10 µM,[55],11.5%
same,inhibition of growth at 10 µM,[56],1.6%
